Consider six molecules from patent US20220267288A1, “CARDIAC THERAPEUTIC” (priority 2019, published 2022).

For one series, the system named is dogs. The experiment in a line: Electrophysiological variables (AERP, VERP, repolarization periods) in halothane-anesthetized dogs. The class given is in vivo, dog. The settings on record: 3 mg/kg. Here is the method: Animals were obtained through Kitayama Labes Co., Ltd. (Nagano, Japan). All experiments were approved by the Toho University Animal Care and User Committee (No. 18-51-395) and performed according to the Guideline for the Care and Use of Laboratory Animals of Toho University.
The dogs were initially anesthetized with thiopental sodium (30 mg/kg, i.v.). After intubation with a cuffed endotracheal tube, anesthesia was maintained by inhalation of halothane (1% v/v) vaporized in oxygen with a volume-limited ventilator (SN-480-3; Shinano Manufacturing Co., Ltd., Tokyo, Japan). Tidal volume and respiratory rate were set at 20 mL/kg and 15 breaths/min, respectively. […] To prevent blood clotting, heparin calcium (100 IU/kg) was intravenously administered through a flush line of the catheter sheath placed at the right femoral vein.
The lead II electrocardiogram was obtained from the limb electrodes. The P-wave duration, PR interval, QRS width and QT interval were measured, and QT interval was corrected with Van de Water's formula: QTc=QT-0.087×(RR-1,000) with RR given in ms. The J-Tpeak and Tpeak-Tend were measured as follows. When the end of T-wave was obscure, we used the monophasic action potential (MAP) signal as a guide to estimate the end. The J-Tpeak was corrected for the heart rate with a coefficient as previously described (J-Tpeakc=J-Tpeak/RR^0.58 with RR given in seconds).
A standard 6-French, quad-polar electrodes catheter (Cordis-Webster Inc., Baldwin Park, Calif., USA) was positioned at the non-coronary cusp of the aortic valve through the left femoral artery to obtain the His bundle electrogram. Another 6-French, quad-polar electrode catheter (Cordis-Webster Inc.) was positioned at the sinus nodal areas of the right atrium through the right femoral vein to electrically pace and to record the local electrogram. A bi-directional steerable MAP recording/pacing combination catheter (1675P; EP Technologies, Inc., CA, USA) was positioned at the endocardium of the interventricular septum in the right ventricle through the left femoral vein to obtain MAP signals. The signals were amplified with a DC preamplifier (model 300; EP Technologies, Inc.). The duration of the MAP signals was measured as an interval, along a horizontal line corresponding to the diastolic baseline, from the MAP upstroke to the desired repolarization level. The interval (ms) at 90% repolarization was defined as MAP90.
The heart was electrically driven with a cardiac stimulator (SEC-3102; Nihon Kohden Co., Ltd.) via the pacing electrodes of the combination catheter placed in the right ventricle or the electrodes of the catheter placed at the right atrium. The stimulation pulses were rectangular in shape, 1-2 V (about twice the threshold voltage) and 1 ms duration. The MAP90 of the ventricle was measured during sinus rhythm (MAP90(sinus)) and at a pacing cycle length of 400 ms (MAP90(CL400)) and 300 ms (MAP90(CL300)). The atrial effective refractory period (AERP) and ventricular effective refractory period (VERP) were assessed with the programmed electrical stimulation. The pacing protocol consisted of 5 beats of basal stimuli in a cycle length of 400 ms followed by an extra stimulus of various coupling intervals. Starting in the late diastole, the coupling interval was shortened in 5-ms decrements until the additional stimulus could no longer elicit a response. The AERP and VERP were defined as the shortest coupling interval that could produce a response. The duration of the terminal repolarization period of the ventricle, reflecting phase-3 repolarization time of the action potential, was calculated by the difference between the MAP90(CL400) and VERP (terminal repolarization period=MAP90(CL400)−VERP) at the same site to estimate the extent of electrical vulnerability of the ventricular muscle.

Series [1] concerns H9c2 cells. Put plainly: Reduction of intracellular ATP (Mitochondrial ToxGlo) in differentiated H9c2 cells. The format is cell-based. Conditions: 0-1 μM pre-treatment 2 h, then dronedarone. Here is the method:
(§1) H9c2 cell line was purchased from American Tissue Type Collection (ATCC) (Manassas, Va.). The cells were cultured in low-glucose DMEM growth media (Cat No: 31600, Thermo Fisher Scientific, Waltham, Mass.) supplemented with 1.5 g/L sodium bicarbonate, 25 mM HEPES, 10% fetal bovine serum (FBS) (GE Healthcare, Singapore), 100 units/mL penicillin, 100 μg/mL streptomycin and 250 ng/mL amphotericin B in 75-cm^2 tissue-culture flasks at 37° C. in a humidified atmosphere of 5% CO2. Cells were fed every 2-3 days and sub-cultured once 70-80% confluency was achieved to prevent the loss of differentiation potential. For differentiation, H9c2 cells were seeded at a density of 100,000 cells/well in 12-well plates. The cells were maintained for 1 day in low-glucose high-serum growth media to allow for cell attachment. Subsequently, cells were differentiated using 1 μM ATRA.
H9c2 cells were seeded in a white chimney plate and differentiated. The media was changed to DMEM with 10 mM galactose, 2 mM glutamine (6 mM final), 5 mM HEPES, 1 mM sodium pyruvate, 100 U/mL penicillin, 100 μg/mL streptomycin, 0.25 μg/mL amphotericin B, 1% FBS, 1× insulin-transferrin-selenium and 1 μM ATRA for 48 h to overcome the Crabtree effect. […] The cytotoxicity and intracellular ATP content were measured concurrently using Mitochondrial ToxGlo™ kit (Promega, Madison, Wis.) using manufacturer's protocol. Mitochondrial ToxGlo™ assay measures the cell viability using fluorogenic peptide bis-alanine-alanine-phenylalanine-R110 (bis-AAF-R110). Bis-AAF-R110 is a selective peptide that measures protease activity in dead cells since it is impermeable to live cells. Here, the fluorescence derived from metabolized bis-AAF-R110 was measured at different concentrations of the test compounds and compared to control. As the concentration of cytotoxic compound increases, the number of dead cells increases, leading to a higher fluorescence signal. ATP is measured by adding the ATP Detection Reagent, resulting in cell lysis and generation of a luminescent signal proportional to the amount of ATP present. […]

The test system of series [2] is H9c2 cells. Put plainly: Mitochondrial membrane potential (Δψm) dissipation, TMRM dye. The class given is cell-based. Conditions: pre-treatment, then dronedarone at 5 μM. Here is the method:
as §1
Dissipation of Δψm by each test compound was measured using mitochondrial permeable dye, tetramethylrhodamine methyl ester perchlorate (TMRM) (Thermo Fisher Scientific, Waltham, Mass.). […] The media was aspirated, the cells were washed with PBS and fluorescence was measured at 557 nm excitation and 570 nm emission wavelengths. […] The media was aspirated and then the cells were treated with dronedarone and the dissipation of Δψm by AADs was measured as described.

The test system of another series is hiPSC-CM. Put plainly: Extracellular field potential duration (FPD), multi electrode array. The format is cell-based, human. Conditions: MEA, 0-10 μM. As for the experimental part:
Electrophysiological perturbations of hiPSC-CM were measured using multi electrode array (MEA) recording system (Multichannel Systems, Reutlingen, Germany). […] FPD measurements were normalized (corrected FPD [cFPD]) to the beating rate of the contracting areas with the Bazzet correction formula: cFPD=FPD/√(RR interval) as described previously^3. One-phase decay algorithm was used to plot corrected FPD curves.

In series [3] the target is T1, CYP2J2 (Homo sapiens, UniProt P51589).
T1 sequence (P51589 1-502): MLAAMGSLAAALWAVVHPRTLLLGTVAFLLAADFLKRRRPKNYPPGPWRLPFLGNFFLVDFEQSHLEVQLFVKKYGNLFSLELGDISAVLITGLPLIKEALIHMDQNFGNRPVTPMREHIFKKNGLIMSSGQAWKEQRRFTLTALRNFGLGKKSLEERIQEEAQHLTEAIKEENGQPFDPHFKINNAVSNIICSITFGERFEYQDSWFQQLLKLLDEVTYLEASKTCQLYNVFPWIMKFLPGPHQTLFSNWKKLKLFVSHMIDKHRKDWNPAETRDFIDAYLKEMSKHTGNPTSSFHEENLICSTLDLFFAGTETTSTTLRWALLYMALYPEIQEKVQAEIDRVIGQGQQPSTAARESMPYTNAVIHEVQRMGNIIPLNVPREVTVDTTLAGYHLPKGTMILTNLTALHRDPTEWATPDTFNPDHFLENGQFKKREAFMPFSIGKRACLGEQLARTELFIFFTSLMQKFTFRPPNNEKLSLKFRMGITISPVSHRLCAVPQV
Put plainly: Time- and concentration-dependent inactivation (MBI) of CYP2J2, rivaroxaban as probe substrate. The format is biochemical. Also noted: purchased BD Gentest (Woburn, Mass.). Here is the method:
Incubations were conducted in triplicates in 96-well plates. Primary incubation mixtures comprising various concentrations of inhibitor (0-20 μM) were pre-incubated at 37° C. for 3 min with CYP450 enzymes (20 pmol/m L) and NADPH B in potassium phosphate buffer (100 mM, pH 7.4). To initiate the enzymatic reaction, 5 μL NADPH A was added to the primary incubation. The final primary incubation mixture volume was 100 μL and contained <1% v/v organic solvent. At different pre-incubation time points (3, 8, 15, 22, 30, and 45 min) after the addition of NADPH A, 5 μL aliquots of the primary incubation were transferred to 95 μL of the secondary incubation containing 50 μM rivaroxaban, the NADPH A and B, and potassium phosphate buffer (100 mM, pH 7.4) to yield a 20-fold dilution. The secondary incubation mixtures were incubated at 37° C. for 30 min with CYP2J2, before 80 μL aliquots were removed and quenched with an equal volume of ice-cold ACN containing 4 μM dexamethasone as IS. The samples were then centrifuged at 3220 g at 4° C. for 30 min before transferring the supernatant to a 96-well plate for liquid chromatography-tandem mass spectrometry (LC-MS/MS) analysis. The main rivaroxaban metabolite, morpholinone hydroxylated metabolite, was quantified using LC-MS/MS analysis.
The mean of triplicate peak area ratios for each concentration and pre-incubation time was normalized to that of 0 μM with the same pre-incubation time. The amount of rivaroxaban metabolite formed during the secondary incubation, a measure of the probe substrate activity remaining, was computed and the natural logarithm of this measure was plotted against inactivation pre-incubation time for each inactivator concentration. […]
In equation 1, kinact=maximum inactivation rate constant at infinite inactivator concentration (in min^−1); KI=concentration of inactivator at the half-maximal rate constant of inactivation (in μM); [I]=in vitro inactivator concentration (in μM). MBI potency (kinact/KI ratio, μM-1·min-1) against human recombinant CYP2J2 is determined for each compound. […]

For series [4], the system named is CYP2J2.
Description: The human ES cell line (H7 ESCs) with a knocked in, constitutively expressed Genetically Encoded Calcium Indicator (GECI) GCaMP6s was maintained on matrigel coated plates in StemMACS™ iPS-Brew XF (Miltenyi Biotec) and passaged in clumps using Collagenase IV (1 mg/mL) enzymatic treatment. For differentiation, ESCs were passaged in single cells using Accutase (Nacalai Tesque), and subjected to the previously established small molecule based GiWi cardiomyocyte differentiation protocol. At Day 7, the media was replaced with RPMI1640 (HyClone) supplemented with B27 with insulin (B27+) (Miltenyi Biotec) for maturation and refreshed every 2 days. […] The cardiomyocytes (H7 CMs) were used for siRNA transfections on day 28. […]
RNA samples (250 ng) were reverse transcribed to obtain cDNA using High-Capacity cDNA Reverse Transcription Kit (Applied Biosystems, U.S.A.). qPCR was performed using the FAST SYBR Green Mix (Applied Biosystems, U.S.A.) on 5 ng of cDNA. ΔΔCT-based relative quantification method was adopted for qPCR analysis using the QuantStudio 5 384-well Block Real-Time PCR system (Applied Biosystems, U.S.A.). The threshold cycle was determined to be Data is presented as fold-change where CT values were normalised to β-ACT/N. Data presented are representative of two independent experiments with error bars indicative of the standard deviation (SD) unless otherwise stated.

Regarding `CC(C)NCC(O)c1ccc(NS(C)(=O)=O)cc1` (racemic) [dl-sotalol], in the series on dogs (10 min after administration), the “ΔJ-Tpeakc (early repolarization period)” value is on record as “+35”, the “ΔTRP (terminal repolarization period)” value is recorded as −1 and the “ΔTpeak-Tend (late repolarization period)” value is “+17”. In addition, in the series on dogs (20 min after administration), the “Atrial selectivity (ΔAERP/ΔVERP)” value is reported as 1.1, the ΔAERP entry is “+60” and the ΔVERP entry is given as “+53”. In the series on dogs (30 min after administration), the “Atrial selectivity (ΔAERP/ΔVERP)” value was found to be 1.0, the ΔAERP entry is recorded as “+56” and the ΔVERP result was “+54”.
Consider `CCCCCC1OC1C/C=C\C/C=C\C/C=C\CCCC(=O)O` (stereo not shown) [14,15-EET], for which the “effect of pre-treatment on dronedarone-induced decrease in intracellular ATP” value in the series on H9c2 cells [1] is recorded as “mitigated the decrease in intracellular ATP levels in a concentration-dependent manner”. Also, the “effect of pre-treatment on dronedarone-induced Δψm dissipation” value in the series with H9c2 cells [2] was “concentration-dependent mitigation of Δψm dissipation”.
As for `CCCCc1oc2ccccc2c1C(=O)c1cc(I)c(OCCN(CC)CC)c(I)c1` [Amiodarone], the “effect on extracellular field potential duration (FPD)” value with hiPSC-CM is given as “Dose-dependent increase in the FPD”. Further, in the series on dogs (15 min after administration), the “ΔJ-Tpeakc (early repolarization period)” value is −10, the “ΔTRP (terminal repolarization period)” value is recorded as −11 and the “ΔTpeak-Tend (late repolarization period)” value was “+18”. For the same molecule, in the series on dogs (60 min after administration), the ΔAERP result is given as “+29” and the ΔVERP entry is reported as “+18”.
As to `Cl.[2H]c1c([2H])c(C(=O)c2c(CCCC)oc3ccc(NS(C)(=O)=O)cc23)c([2H])c([2H])c1OCCCN(CCCC)CCCC` [Compound 2], at CYP2J2 [3], the “inactivation (MBI) of CYP2J2, in words” value was “inactivated CYP2J2 in a time- and concentration-dependent manner”.
On to `CC(C)COCC(CN(Cc1ccccc1)c1ccccc1)N1CCCC1` (stereo not shown) [bepridil], for which, in the series with dogs (10 min after administration), the “Atrial selectivity (ΔAERP/ΔVERP)” value was determined as 3.0, the ΔAERP result is on record as “+53” and the ΔVERP result was “+55”. For the same molecule, in the series with dogs (20 min after administration), the “ΔJ-Tpeakc (early repolarization period)” value is “+31”, the “ΔTRP (terminal repolarization period)” value is “+4” and the “ΔTpeak-Tend (late repolarization period)” value is recorded as “+14”.
With “siRNA1: Accell self-delivery siRNA against CYP2J2, CUCAGGUGUAAUAUUGUUA, SEQ ID NO: 1 (Accell self-delivery modifications, pattern not given here)”, the “knockdown of CYP2J2, in words” value with CYP2J2 [4] is “most effective”.
